In patent publication US20030083469A1, “Allosteric control of nuclear hormone receptors” (The Salk Institute for Biological Studies, priority 1995, published 2003):

Columns and labels:
[1] = molecular target: T1, RAR-RXR heterodimers (Homo sapiens, UniProt P10276+P19793); experiment: Transient transfection analysis of RAR-RXR heterodimers (TK-LUC reporter, CV-1 cells); assay type: cell-based
T1 construct: transient transfection analysis of full-length Nurrl and/or RXR; expressed in transfected cells; host or cells: CV-1
T1 sequence (P10276 1-462): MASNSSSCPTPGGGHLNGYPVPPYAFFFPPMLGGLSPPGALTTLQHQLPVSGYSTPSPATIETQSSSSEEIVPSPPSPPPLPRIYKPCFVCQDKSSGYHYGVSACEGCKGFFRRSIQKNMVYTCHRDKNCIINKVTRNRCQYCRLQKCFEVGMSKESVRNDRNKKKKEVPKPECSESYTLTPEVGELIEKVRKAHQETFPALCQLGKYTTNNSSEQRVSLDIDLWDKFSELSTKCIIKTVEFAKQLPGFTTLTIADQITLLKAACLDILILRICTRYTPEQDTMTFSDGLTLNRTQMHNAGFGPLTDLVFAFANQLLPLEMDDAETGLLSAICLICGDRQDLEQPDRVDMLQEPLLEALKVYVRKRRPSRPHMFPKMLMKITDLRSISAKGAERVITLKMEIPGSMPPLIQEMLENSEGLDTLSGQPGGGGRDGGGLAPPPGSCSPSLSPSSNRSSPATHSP
T1 sequence (P19793 1-462): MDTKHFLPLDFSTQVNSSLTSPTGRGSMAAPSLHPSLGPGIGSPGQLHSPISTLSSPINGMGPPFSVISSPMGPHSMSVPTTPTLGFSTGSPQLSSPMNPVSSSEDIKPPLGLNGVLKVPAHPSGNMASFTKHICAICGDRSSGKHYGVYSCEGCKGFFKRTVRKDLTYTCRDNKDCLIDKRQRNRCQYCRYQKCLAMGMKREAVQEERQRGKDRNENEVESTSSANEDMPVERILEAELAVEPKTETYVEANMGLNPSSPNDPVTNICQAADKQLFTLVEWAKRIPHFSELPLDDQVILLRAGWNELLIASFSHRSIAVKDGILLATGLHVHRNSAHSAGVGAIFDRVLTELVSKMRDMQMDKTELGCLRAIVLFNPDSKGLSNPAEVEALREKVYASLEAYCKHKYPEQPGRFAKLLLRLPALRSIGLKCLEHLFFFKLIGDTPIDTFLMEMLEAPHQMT
Procedure: One day prior to transfection, cells were plated to 50-80% confluence using phenol-red free DMEM-FBS. Cells were transfected by lipofection using N-{2-(2,3)-dioleoyloxy)propyl-N,N,N-trimethyl ammonium methyl sulfate} according to the manufacturer's instructions (DOTAP, Boehringer Mannheim).
In the right panel of FIG. 2, cells were transfected with HRE×1 TK-LUC (300 ng/10^5 cells), CMX-hRARα (50 ng/10^5 cells) CMX-hRXRα (50 ng/10^5 cells) and CMX-βgal (500 ng/10^5 cells) . […] Normalized luciferase activity was determined and plotted as fold-activation relative to untreated cells.

[2] = molecular target: T2, GAL-T3R + RXR LBD (Homo sapiens, UniProt P19793); experiment: Transient transfection of GAL-T3R chimera with RXR LBD; assay type: cell-based; conditions: 100 nM LG69
T2 construct: or the human RXRα LBD (Glu 203 -Thr 462); expressed in transfected cells; host or cells: CV-1
T2 sequence (P19793 203-462): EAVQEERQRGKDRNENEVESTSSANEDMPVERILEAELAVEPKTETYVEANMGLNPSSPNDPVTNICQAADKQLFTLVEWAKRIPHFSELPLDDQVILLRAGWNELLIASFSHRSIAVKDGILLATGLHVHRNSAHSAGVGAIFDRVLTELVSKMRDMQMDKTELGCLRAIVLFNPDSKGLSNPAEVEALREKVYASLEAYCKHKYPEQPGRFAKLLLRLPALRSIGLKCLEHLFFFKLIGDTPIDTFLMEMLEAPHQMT
T2 sequence (P10828 178-461 partner): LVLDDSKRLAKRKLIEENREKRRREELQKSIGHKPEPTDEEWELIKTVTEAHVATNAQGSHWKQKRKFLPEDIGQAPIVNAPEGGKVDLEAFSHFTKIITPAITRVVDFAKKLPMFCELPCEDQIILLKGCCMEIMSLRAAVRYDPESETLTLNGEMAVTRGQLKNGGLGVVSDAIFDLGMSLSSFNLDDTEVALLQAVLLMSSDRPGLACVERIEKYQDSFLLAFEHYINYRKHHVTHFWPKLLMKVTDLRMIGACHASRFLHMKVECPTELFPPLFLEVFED
Procedure: CV-1 cells were grown in Dulbecco's Modified Eagle's medium supplemented with 10% resin-charcoal stripped (Samuels et al., Endocrinology 105:80-85 (1979)) fetal bovine serum, 50 U/ml penicillin G and 50 μg/ml streptomycin sulfate (DMEM-FBS) at 37° C. in 5% CO2. One day prior to transfection, cells were plated to 50-80% confluence using phenol-red free DMEM-FBS. Cells were transfected by lipofection using N-{2-(2,3)-dioleoyloxy)propyl-N,N,N-trimethyl ammonium methyl sulfate} according to the manufacturer's instructions (DOTAP, Boehringer Mannheim). […] Cells were harvested and assayed for luciferase and β-galactosidase activity. All points were performed in triplicate in each experiment and varied by less than 10%. Each experiment was repeated three or more times with similar results.
Since RXR serves as a silent partner in the T3R and RAR pathways, it was next investigated whether RXR could serve as an active component in other complexes. To search for such complexes, the LBD of a number of nuclear receptors were fused to the GAL4 DBD, and tested to determine whether the RXR LBD could confer LG69 responsiveness upon these GAL-LBD chimeras. […] Normalized luciferase activity was determined and plotted as fold-activation relative to untreated cells.

[3] = molecular target: T3, GST-RXR/RAR heterodimers (Homo sapiens, UniProt P10276+P19793); experiment: Ligand binding assay with GST-RXR/RAR heterodimers
T3 sequence (P19793 1-462): T1 sequence (P19793 1-462)
T3 sequence (P10276 1-462): T1 sequence (P10276 1-462)

In the case of `CC=C(c1ccc(C(=O)O)cc1)c1cc2c(cc1C)C(C)(C)CCC2(C)C` [LG69, 4-{1-(3,5,5,8,8-pentamethyl-5,6,7,8-tetrahydro-2-napthalenyl)-1-propenyl}benzoic acid], the “transcriptional activity with Am580+LG69 over that seen with AM580 alone” value ([1]; 50 nM Am580+100 nM LG69, full-length receptors) is reported as “increased transcriptional activity”, the “responsiveness of transfected cells to ligand (luciferase fold-activation)” value ([1]; CV-1 cells transfected with RARα and RXRα, 50 nM Am580 or 100 nM LG69) is reported as “unresponsive” and the LG69 responsiveness [2] is reported as “not seen”. For the same molecule, the “competition of [3H] 9-cis RA binding by addition of both Am580 and LG69” value ([3]; 50 nM [3H] 9-cis RA, 2 μM Am580 + 2 μM LG69) was “Nearly complete competition” and the “decrease in the amount of [3H] LG69 bound to GST-RXR on addition of RAR” value ([3]; 50 nM [3H] LG69, 500 ng hRARα) was less than 85%.
